Source: patent publication US20130345218A1 (Vertex Pharmaceuticals Incorporated, priority 2010, published 2013)
Read-outs that look alike come from different tables or passages of the source.

Key:
[1] = tested on: influenza A virus (A/PR/8/34) minus-strand viral RNA; assay: microbe, parasite or virus in culture; format: cell-based; conditions: Influenza A virus, PR/8
[2] = tested on: influenza A virus (A/PR/8/34); assay: microbe, parasite or virus in culture; format: cell-based; conditions: Influenza A virus, PR/8, MDCK, MDCK cells
influenza infection = assay: Influenza therapeutic mouse model (survival, body weight, whole body plethysmography); format: in vivo; conditions: Balb/c mice, dosing @ 48 hours post infection with 30 mg/kg BID X 10 days
[3] = mean EC50 (mean all), viral RNA by bDNA, read-out: bDNA EC50
[4] = 72 h, mean IC50 (mean all), A/PR/8/34, 72 hours, read-out: Flu, MDCK IC50

| SMILES | EC50 [1, 3] [µM] | IC50 [2, 4] [µM] | also measured |
| --- | --- | --- | --- |
| CN(C)C(=O)N[C@@H]1CCC[C@H](Nc2nc(-c3c[nH]c4ncc(F)cc34)c(F)cc2F)C1 [Compound I-17, 3-((1R,3S)-3-((3,5-difluoro-6-(5-fluoro-1H-pyrrolo[2,3-b]pyridin-3-yl)pyridin-2-yl)amino)cyclohexyl)-1,1-dimethylurea] | < 3.3 | < 3.3 |  |
| Cn1cnc(C(=O)N[C@@H]2CCC[C@H](Nc3nc(-c4c[nH]c5ncc(F)cc45)c(F)cc3F)C2)c1 [Compound I-18, N-((1R,3S)-3-((3,5-difluoro-6-(5-fluoro-1H-pyrrolo[2,3-b]pyridin-3-yl)pyridin-2-yl)-amino)cyclohexyl)-1-methyl-1H-imidazole-4-carboxamide] | < 3.3 | < 3.3 |  |
| O=C(N[C@@H]1CCC[C@H](Nc2nc(-c3c[nH]c4ncc(F)cc34)c(C(F)(F)F)cc2F)C1)N1CCCC1 [Compound I-19] | < 3.3 | < 3.3 |  |
| O=C(N[C@H]1CCC[C@@H](Nc2nc(-c3c[nH]c4ncc(F)cc34)c(C(F)(F)F)cc2F)C1)N1CCOCC1 [Compound I-21] | < 3.3 | < 3.3 |  |
| O=C(N[C@@H]1CCC[C@H](Nc2nc(-c3c[nH]c4ncc(F)cc34)c(C(F)(F)F)cc2F)C1)N1CCOCC1 [Compound I-22, N-[(1R,3S)-3-[[3-fluoro-6-(5-fluoro-1H-pyrrolo[2,3-b]pyridin-3-yl)-5-(trifluoro-methyl)-2-pyridyl]amino]cyclohexyl]morpholine-4-carboxamide] | < 3.3 | < 3.3 |  |
| N#CC1(C(=O)N[C@@H]2CCC[C@H](Nc3nc(-c4c[nH]c5ncc(F)cc45)c(F)cc3F)C2)CC1 [Compound I-23] | < 3.3 | < 3.3 |  |
| O=C(N[C@@H]1CCC[C@H](Nc2nc(-c3c[nH]c4ncc(F)cc34)c(F)cc2F)C1)N1CC[C@H](F)C1 [Compound I-24, (S)—N-((1R,3S)-3-((3,5-difluoro-6-(5-fluoro-1H-pyrrolo[2,3-b]pyridin-3-yl)pyridin-2-yl)-amino)cyclohexyl)-3-fluoropyrrolidine-1-carboxamide] | < 3.3 | < 3.3 |  |
| O=C(N[C@@H]1CCC[C@H](Nc2nc(-c3c[nH]c4ncc(F)cc34)c(F)cc2F)C1)N1CCC(F)(F)C1 [Compound I-25, N-((1R,3S)-3-((3,5-difluoro-6-(5-fluoro-1H-pyrrolo[2,3-b]pyridin-3-yl)pyridin-2-yl)-amino)cyclohexyl)-3,3-difluoropyrrolidine-1-carboxamide] | < 3.3 | < 3.3 |  |
| O=C(O)[C@@H]1C2CCC(CC2)[C@H]1Nc1nc(-c2c[nH]c3ncc(F)cc23)c(F)cc1F [Compound I-26] | < 3.3 | < 3.3 |  |
| O=C(O)[C@H]1C2CCC(CC2)[C@@H]1Nc1nc(-c2c[nH]c3ncc(F)cc23)c(F)cc1F [Compound I-28, (2S,3S)-3-((3,5-difluoro-6-(5-fluoro-1H-pyrrolo[2,3-b]pyridin-3-yl)pyridin-2-yl)amino)bicyclo[2.2.2]octane-2-carboxylic acid] | < 3.3 | < 3.3 | EC50 ([1]; bDNA assay, read-out: EC50): 0.005 µM; Percent Weight Loss (Day 8) (influenza infection; post challenge day 8): 24.8%; Percent Survival (influenza infection; scored for 21 days): 100%; WBP (Penh; Day 6) (influenza infection; whole body plethysmography): 1.84; IC50 ([2]; CPE assay, A/PR/8/34, read-out: IC50): 0.005 µM |
| COC(=O)[C@@H]1C2CCC(CC2)[C@H]1Nc1nc(-c2c[nH]c3ncc(Cl)cc23)c(F)cc1F [Compound I-31] | > 3.3 | ≥ 3.3 |  |
| O=C(O)[C@@H]1C2CCC(CC2)[C@H]1Nc1nc(-c2c[nH]c3ncc(Cl)cc23)c(F)cc1F [Compound I-32] | < 3.3 | < 3.3 |  |
| COC(=O)[C@H]1C2CCC(CC2)[C@@H]1Nc1nc(-c2c[nH]c3ncc(Cl)cc23)c(F)cc1F [Compound I-33, (2S,3S)-methyl 3-((6-(5-chloro-1H-pyrrolo[2,3-b]pyridin-3-yl)-3,5-difluoropyridin-2-yl)amino)bicyclo[2.2.2]octane-2-carboxylate] | < 3.3 | < 3.3 |  |
| O=C(O)[C@H]1C2CCC(CC2)[C@@H]1Nc1nc(-c2c[nH]c3ncc(Cl)cc23)c(F)cc1F [Compound I-34, (2S,3S)-3-((6-(5-chloro-1H-pyrrolo[2,3-b]pyridin-3-yl)-3,5-difluoropyridin-2-yl)amino)-bicyclo[2.2.2]octane-2-carboxylic acid] | < 3.3 | < 3.3 |  |
| O=C(O)[C@H]1C2CCC(CC2)[C@@H]1Nc1cc(C(F)(F)F)cc(-c2c[nH]c3ncc(F)cc23)n1 [Compound I-40] | < 3.3 | < 3.3 |  |
| O=C(O)[C@@H]1C2CCC(CC2)[C@H]1Nc1cc(C(F)(F)F)cc(-c2c[nH]c3ncc(F)cc23)n1 [Compound I-41] | < 3.3 | < 3.3 |  |
| N#Cc1cc(F)c(N[C@H]2CCC[C@@H](NC(=O)N3CC[C@H](F)C3)C2)nc1-c1c[nH]c2ncc(F)cc12 [Compound I-43, (S)—N-((1R,3S)-3-((5-cyano-3-fluoro-6-(5-fluoro-1H-pyrrolo[2,3-b]pyridin-3-yl)pyridin-2-yl)amino)cyclohexyl)-3-fluoropyrrolidine-1-carboxamide] | < 3.3 | < 3.3 |  |
| O=C(O)[C@@H]1C2CCC(CC2)[C@H]1Nc1cnnc(-c2c[nH]c3ncc(F)cc23)n1 [Compound I-45] | > 3.3 | ≥ 3.3 |  |
| O=C(O)[C@H]1C2CCC(CC2)[C@@H]1Nc1cnnc(-c2c[nH]c3ncc(F)cc23)n1 [Compound I-46] | < 3.3 | < 3.3 |  |
| O=C(N[C@@H]1CCC[C@H](Nc2nc(-c3c[nH]c4ncc(F)cc34)c(F)cc2F)C1)c1ccsc1 [Compound I-47, N-((1R,3S)-3-((3,5-difluoro-6-(5-fluoro-1H-pyrrolo[2,3-b]pyridin-3-yl)pyridin-2-yl)amino)cyclohexyl)thiophene-3-carboxamide] | < 3.3 | < 3.3 |  |
| O=C(N[C@@H]1CCC[C@H](Nc2nc(-c3c[nH]c4ncc(F)cc34)c(F)cc2F)C1)c1csc(Cl)c1 [Compound I-48, 5-chloro-N-((1R,3S)-3-((3,5-difluoro-6-(5-fluoro-1H-pyrrolo[2,3-b]pyridin-3-yl)pyridin-2-yl)amino)cyclohexyl)thiophene-3-carboxamide] | < 3.3 | < 3.3 |  |
